The source of these data is patent US20090076142A1, “USE OF THE IRRITATING PRINCIPAL OLEOCANTHAL IN OLIVE OIL, AS WELL AS STRUCTURALLY AND FUNCTIONALLY SIMILAR COMPOUNDS” (The Trustees of the University of Pennsylvania, priority 2005, published 2009).

The target in one assay is T1, soybean 15-lipoxygenase (Glycine max, UniProt P08170).
T1 construct: purchased Cayman Chemicals
T1 sequence (P08170 1-839): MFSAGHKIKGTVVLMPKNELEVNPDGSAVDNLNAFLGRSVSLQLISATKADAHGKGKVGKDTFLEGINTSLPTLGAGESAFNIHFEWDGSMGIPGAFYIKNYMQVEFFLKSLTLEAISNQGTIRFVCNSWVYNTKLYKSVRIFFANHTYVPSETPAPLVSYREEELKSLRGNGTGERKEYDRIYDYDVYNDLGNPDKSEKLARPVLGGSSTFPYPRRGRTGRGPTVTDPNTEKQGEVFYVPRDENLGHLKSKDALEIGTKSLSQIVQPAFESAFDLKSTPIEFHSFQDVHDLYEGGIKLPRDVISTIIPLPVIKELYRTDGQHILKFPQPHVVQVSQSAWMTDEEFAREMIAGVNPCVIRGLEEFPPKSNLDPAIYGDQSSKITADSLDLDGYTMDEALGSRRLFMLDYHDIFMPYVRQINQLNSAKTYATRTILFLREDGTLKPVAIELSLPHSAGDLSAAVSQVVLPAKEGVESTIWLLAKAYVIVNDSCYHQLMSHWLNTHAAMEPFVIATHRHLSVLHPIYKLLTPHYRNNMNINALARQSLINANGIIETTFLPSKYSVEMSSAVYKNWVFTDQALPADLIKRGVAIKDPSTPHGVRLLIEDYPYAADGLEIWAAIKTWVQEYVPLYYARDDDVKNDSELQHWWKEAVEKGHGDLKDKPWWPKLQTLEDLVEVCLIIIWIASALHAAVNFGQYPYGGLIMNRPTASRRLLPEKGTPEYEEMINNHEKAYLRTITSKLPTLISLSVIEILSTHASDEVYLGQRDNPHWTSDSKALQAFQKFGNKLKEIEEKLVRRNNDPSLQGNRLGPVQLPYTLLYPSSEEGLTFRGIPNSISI
Briefly: 15-lipoxygenase inhibition assay (Cayman Chemicals kit). As to conditions: mean ± SEM, three independent experiments, read-out: Percent inhibition of 15-LO. The format is biochemical.

For a further assay, the target named is T2, human recombinant COX-2 (Homo sapiens, UniProt P35354).
T2 construct: purchased Cayman Chemicals
T2 sequence (P35354 18-604): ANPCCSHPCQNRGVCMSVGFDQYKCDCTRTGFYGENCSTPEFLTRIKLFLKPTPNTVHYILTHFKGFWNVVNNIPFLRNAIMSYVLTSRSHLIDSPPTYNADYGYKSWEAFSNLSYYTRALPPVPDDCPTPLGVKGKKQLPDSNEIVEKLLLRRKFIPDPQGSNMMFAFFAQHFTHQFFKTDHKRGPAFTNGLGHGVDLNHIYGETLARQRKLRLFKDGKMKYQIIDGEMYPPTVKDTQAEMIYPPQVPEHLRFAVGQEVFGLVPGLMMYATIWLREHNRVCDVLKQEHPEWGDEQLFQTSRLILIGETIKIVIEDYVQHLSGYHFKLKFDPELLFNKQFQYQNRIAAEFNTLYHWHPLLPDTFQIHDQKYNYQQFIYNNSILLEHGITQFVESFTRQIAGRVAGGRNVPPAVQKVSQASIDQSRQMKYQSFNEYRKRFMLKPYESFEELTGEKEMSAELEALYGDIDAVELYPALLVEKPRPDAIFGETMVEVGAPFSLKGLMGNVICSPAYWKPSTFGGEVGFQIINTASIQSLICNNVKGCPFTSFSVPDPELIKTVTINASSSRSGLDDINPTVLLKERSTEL
Briefly: Cyclooxygenase COX-2 inhibition assay (Cayman Chemicals kit). Format: biochemical. As to conditions: for inhibition at 7 µM / inhibition at 25 µM / inhibition at 100 µM: mean ± SEM, three independent experiments, read-out: Percent inhibition of COX-2; for IC50: least squares regression analysis of inhibition vs. concentration, read-out: calculated IC50 for COX-2.

The target in the next assay is T3, ovine COX-1 (Ovis aries, UniProt P05979).
T3 construct: purchased Cayman Chemicals
T3 sequence (P05979 25-600): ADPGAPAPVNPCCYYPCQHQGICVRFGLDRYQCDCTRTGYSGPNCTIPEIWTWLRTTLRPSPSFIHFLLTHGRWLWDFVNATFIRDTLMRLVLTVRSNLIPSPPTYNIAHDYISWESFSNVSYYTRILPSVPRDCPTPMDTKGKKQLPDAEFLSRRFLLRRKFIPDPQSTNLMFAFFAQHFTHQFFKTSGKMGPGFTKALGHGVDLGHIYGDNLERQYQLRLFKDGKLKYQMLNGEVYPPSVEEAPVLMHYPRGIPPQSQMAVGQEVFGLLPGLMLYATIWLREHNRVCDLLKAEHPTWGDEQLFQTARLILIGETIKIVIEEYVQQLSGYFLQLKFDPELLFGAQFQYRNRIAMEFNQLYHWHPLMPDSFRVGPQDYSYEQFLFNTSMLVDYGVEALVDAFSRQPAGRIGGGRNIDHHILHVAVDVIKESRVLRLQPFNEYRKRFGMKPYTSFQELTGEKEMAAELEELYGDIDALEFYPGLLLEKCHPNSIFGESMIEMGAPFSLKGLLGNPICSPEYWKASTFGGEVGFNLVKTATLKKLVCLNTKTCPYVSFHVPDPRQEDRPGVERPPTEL
Briefly: Cyclooxygenase COX-1 inhibition assay (Cayman Chemicals kit). Format: biochemical. As to conditions: for inhibition at 7 µM / inhibition at 25 µM / inhibition at 100 µM: mean ± SEM, three independent experiments, read-out: Percent inhibition of COX-1; for IC50: least squares regression analysis of inhibition vs. concentration, read-out: calculated IC50 for COX-1.

The next assay relates to throat irritation. Briefly: Throat irritation sensory test, two-alternative forced-choice, compound in corn oil. The format is in vivo, human. Here is the method:
Testing was double-blind and each was exposed to three sets of two samples, one of which was added synthesized oleocanthal and the other served as the blank control. The task was to indicated which of the pair was more irritating. […] Importantly, the effect was dose dependent (FIG. 2 open triangles, dashed line). Ten subjects were tested with non-irritating commercial corn oils presented neat and mixed with either synthesized (−)-oleocanthal or the bitter agent sucrose octaacetate (SOA) (Sigma-Aldrich). […] (−)-Oleocanthal was tested at the highest concentration identified in the ten rated oils, 200 μg/ml, and at one half and whole log steps more dilute 63.25 and 20 μg/ml. SOA was added to the corn oil (4×10^−4, 1×10^−4, 5×10^−5 M) to intensity match the irritation of the three levels of (−)-oleocanthal. Subjects participated in two-alternative forced-choice (2AFC) trials (four trials at every concentration for each subject) and in intensity ratings sessions (four ratings per each oil). For the 2AFC trials subjects were presented with two 3.0 ml corn oil samples with matching intensities of SOA and (−)-oleocanthal in ascending order, and were required to sample oils as described above. While blind to stimulus position, subjects were asked two questions on each trial, “Which of the two oils was more irritating in the throat?” and “Which one was more bitter?” At the 20 μg/ml & 5×10^−5 M level most subjects reported on some trials that the same oil was both the more irritating and the more bitter of the two. […] Subjects performed at chance when selecting among two unadulterated corn oils, when the correct choice was randomly assigned prior to testing. […] The other two concentrations were correct 39/40 and 40/40 trials. For the intensity rating trials subjects were presented with all eight oils in ascending order, counterbalanced for stimulus order and asked to rate the throat irritation and bitterness of every oil on a general labeled magnitude scale.

The term inhibition denotes how much of the control response was suppressed. For the compound `O=C(O)/C=C/c1ccc(O)c(O)c1` [Caffeic Acid, caffeic acid, reference compound], on soybean 15-lipoxygenase, the inhibition at 7 µM came out at 19.8 ± 1.3% and the inhibition at 25 µM was 25.2 ± 2.2%.
Broadly, the IC50 is the point on the concentration scale where inhibition reaches its midpoint. In the case of `CC=C(C=O)C(CC=O)CC(=O)OCCc1ccc(O)cc1` (single isomer, unassigned) [Oleocanthal (+)], at human recombinant COX-2, the inhibition at 7 µM was determined as 6.1 ± 4.2%, the inhibition at 25 µM came out at 41.3 ± 15.9%, the inhibition at 100 µM is 69.6 ± 3.9% and the IC50 was 40.5 µM. On soybean 15-lipoxygenase, the inhibition at 7 µM came out at 0%, the inhibition at 25 µM worked out at 0.7 ± 1% and the inhibition at 100 µM came out at 3.5 ± 5.5%. Moreover, on ovine COX-1, the inhibition at 7 µM was 24.6 ± 7.5%, the inhibition at 25 µM was determined as 54.5 ± 4.6%, the inhibition at 100 µM came out at 68 ± 15.2% and the half-maximal inhibitory concentration (IC50) was 27.9 µM.
For `C/C=C(/C=O)[C@@H](CC=O)CC(=O)OCCc1ccc(O)cc1` [Oleocanthal (−), 2-(4-hydroxyphenyl)ethyl, 4-formyl-3-(2-oxoethyl)-4-hexenoic acid ester], on human recombinant COX-2, the inhibition at 7 µM was determined as 14.5 ± 2.3%, the inhibition at 25 µM was 56.6 ± 9.5%, the inhibition at 100 µM was determined as 70.9 ± 8.6% and the 50% inhibitory concentration (IC50) was 29.4 µM. Moreover, the “correct 2AFC trials (more irritating in the throat)” value in the assay on throat irritation (20 μg/ml in corn oil vs SOA, ten subjects) is 24 out of 40. For the same compound, the “detection threshold level of throat irritation in corn oil” value in the assay on throat irritation (corn oil, ten subjects) was around 20 µg/mL. Further, the “throat irritation compared with oleocanthal isolated from premium olive oil” value with throat irritation (synthetic compound in corn oil) is “identical to oleocanthal isolated from premium olive oil”. The “correct identification of the more irritating sample (2AFC)” value in the assay with throat irritation (three evaluators, three presentations, corn oil, approximately twice the concentration found in Falconaro olive oil, p<0.01) was 9 of 9. Further, at soybean 15-lipoxygenase, the inhibition at 7 µM amounted to 0%, the inhibition at 25 µM is 0% and the inhibition at 100 µM stood at 0.4 ± 0.8%. Further, at ovine COX-1, the inhibition at 7 µM came to 24.6 ± 7.3%, the inhibition at 25 µM amounted to 56.1 ± 3.2%, the inhibition at 100 µM was found to be 83.5 ± 3.5% and the IC50 was 21.4 µM.
Take `COc1ccc2c(c1)c(CC(=O)O)c(C)n2C(=O)c1ccc(Cl)cc1` [Indomethacin, reference compound]: on soybean 15-lipoxygenase, the inhibition at 7 µM is 0.5 ± 0.1% and the inhibition at 25 µM came out at 0.1 ± 0.9%.
